Test results taken from patent US10206394B2, “Herbicidal compounds” (Syngenta Participations AG, priority 2014, dated 2019).
Read-outs that look alike come from different tables or passages of the source.

Tests used:
Experiment in all cases: Glasshouse assay for herbicidal activity (pre- and post-emergence), percentage phytotoxicity
Format in all cases: in vivo
[1] = tested on: Alopecurus myosuroides (ALOMY); conditions: Alopecurus myosuroides
Summary of the method: (§1)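 Pot-grown plants treated one day after sowing (pre-emergence) or at about 12 days (post-emergence); glasshouse at 24/18° C (warm) or 20/16° C (cool species) day/night, 16 h light, 65% humidity. Visual % phytotoxicity (0 = none, 100 = total damage) scored at 15 DAA post or 20 DAA pre.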

[2] = tested on: Avena fatua (AVEFA); conditions: Avena fatua
Summary of the method: as §1

[3] = tested on: Echinochloa crus-galli (ECHCG); conditions: Echinochloa crus-galli
Summary of the method: as §1

[4] = tested on: Lolium perenne (LOLPE); conditions: Lolium perenne
Summary of the method: as §1

[5] = post-emergence, 360 h, 250 g/ha, post-emergence, 15 DAA, visual assessment (100%=total damage, 0%=no damage), read-out: Post-emergence herbicidal activity (percentage phytotoxicity) ALOMY POST
[6] = pre-emergence, 480 h, 250 g/ha, pre-emergence, 20 DAA, visual assessment (100%=total damage, 0%=no damage), read-out: Pre-emergence herbicidal activity (percentage phytotoxicity) ALOMY PRE
[7] = post-emergence, 360 h, 250 g/ha, post-emergence, 15 DAA, visual assessment (100%=total damage, 0%=no damage), read-out: Post-emergence herbicidal activity (percentage phytotoxicity) AVEFA POST
[8] = pre-emergence, 480 h, 250 g/ha, pre-emergence, 20 DAA, visual assessment (100%=total damage, 0%=no damage), read-out: Pre-emergence herbicidal activity (percentage phytotoxicity) AVEFA PRE
[9] = post-emergence, 360 h, 250 g/ha, post-emergence, 15 DAA, visual assessment (100%=total damage, 0%=no damage), read-out: Post-emergence herbicidal activity (percentage phytotoxicity) ECHCG POST
[10] = pre-emergence, 480 h, 250 g/ha, pre-emergence, 20 DAA, visual assessment (100%=total damage, 0%=no damage), read-out: Pre-emergence herbicidal activity (percentage phytotoxicity) ECHCG PRE
[11] = post-emergence, 360 h, 250 g/ha, post-emergence, 15 DAA, visual assessment (100%=total damage, 0%=no damage), read-out: Post-emergence herbicidal activity (percentage phytotoxicity) LOLPE POST
[12] = pre-emergence, 480 h, 250 g/ha, pre-emergence, 20 DAA, visual assessment (100%=total damage, 0%=no damage), read-out: Pre-emergence herbicidal activity (percentage phytotoxicity) LOLPE PRE
[13] = post-emergence, 360 h, Rate 250 g/ha, post-emergence, assessed visually 15 DAA, 100%=total damage, 0%=no damage, read-out: Post-emergence herbicidal activity (percentage phytotoxicity) ALOMY POST
[14] = pre-emergence, 480 h, Rate 250 g/ha, pre-emergence, assessed visually 20 DAA, 100%=total damage, 0%=no damage, read-out: Pre-emergence herbicidal activity (percentage phytotoxicity) ALOMY PRE
[15] = post-emergence, 360 h, Rate 250 g/ha, post-emergence, assessed visually 15 DAA, 100%=total damage, 0%=no damage, read-out: Post-emergence herbicidal activity (percentage phytotoxicity) AVEFA POST
[16] = pre-emergence, 480 h, Rate 250 g/ha, pre-emergence, assessed visually 20 DAA, 100%=total damage, 0%=no damage, read-out: Pre-emergence herbicidal activity (percentage phytotoxicity) AVEFA PRE
[17] = post-emergence, 360 h, Rate 250 g/ha, post-emergence, assessed visually 15 DAA, 100%=total damage, 0%=no damage, read-out: Post-emergence herbicidal activity (percentage phytotoxicity) ECHCG POST
[18] = pre-emergence, 480 h, Rate 250 g/ha, pre-emergence, assessed visually 20 DAA, 100%=total damage, 0%=no damage, read-out: Pre-emergence herbicidal activity (percentage phytotoxicity) ECHCG PRE
[19] = post-emergence, 360 h, Rate 250 g/ha, post-emergence, assessed visually 15 DAA, 100%=total damage, 0%=no damage, read-out: Post-emergence herbicidal activity (percentage phytotoxicity) LOLPE POST
[20] = pre-emergence, 480 h, Rate 250 g/ha, pre-emergence, assessed visually 20 DAA, 100%=total damage, 0%=no damage, read-out: Pre-emergence herbicidal activity (percentage phytotoxicity) LOLPE PRE
[21] = post-emergence, 360 h, Rate 250 g/ha, post-emergence, visual assessment 15 DAA, 100%=total damage, 0%=no damage, read-out: Post-emergence herbicidal activity (percentage phytotoxicity) ALOMY POST
[22] = pre-emergence, 480 h, Rate 250 g/ha, pre-emergence, visual assessment 20 DAA, 100%=total damage, 0%=no damage, read-out: Pre-emergence herbicidal activity (percentage phytotoxicity) ALOMY PRE
[23] = post-emergence, 360 h, Rate 250 g/ha, post-emergence, visual assessment 15 DAA, 100%=total damage, 0%=no damage, read-out: Post-emergence herbicidal activity (percentage phytotoxicity) AVEFA POST
[24] = pre-emergence, 480 h, Rate 250 g/ha, pre-emergence, visual assessment 20 DAA, 100%=total damage, 0%=no damage, read-out: Pre-emergence herbicidal activity (percentage phytotoxicity) AVEFA PRE
[25] = post-emergence, 360 h, Rate 250 g/ha, post-emergence, visual assessment 15 DAA, 100%=total damage, 0%=no damage, read-out: Post-emergence herbicidal activity (percentage phytotoxicity) ECHCG POST
[26] = pre-emergence, 480 h, Rate 250 g/ha, pre-emergence, visual assessment 20 DAA, 100%=total damage, 0%=no damage, read-out: Pre-emergence herbicidal activity (percentage phytotoxicity) ECHCG PRE
[27] = post-emergence, 360 h, Rate 250 g/ha, post-emergence, visual assessment 15 DAA, 100%=total damage, 0%=no damage, read-out: Post-emergence herbicidal activity (percentage phytotoxicity) LOLPE POST
[28] = pre-emergence, 480 h, Rate 250 g/ha, pre-emergence, visual assessment 20 DAA, 100%=total damage, 0%=no damage, read-out: Pre-emergence herbicidal activity (percentage phytotoxicity) LOLPE PRE
[29] = post-emergence, 360 h, POST-emergence, rate 250 g/ha, visual score 15 DAA (100%=total damage, 0%=no damage), read-out: Post-emergence herbicidal activity (percentage phytotoxicity) ALOMY POST
[30] = pre-emergence, 480 h, PRE-emergence, rate 250 g/ha, visual score 20 DAA (100%=total damage, 0%=no damage), read-out: Pre-emergence herbicidal activity (percentage phytotoxicity) ALOMY PRE
[31] = post-emergence, 360 h, POST-emergence, rate 250 g/ha, visual score 15 DAA (100%=total damage, 0%=no damage), read-out: Post-emergence herbicidal activity (percentage phytotoxicity) AVEFA POST
[32] = pre-emergence, 480 h, PRE-emergence, rate 250 g/ha, visual score 20 DAA (100%=total damage, 0%=no damage), read-out: Pre-emergence herbicidal activity (percentage phytotoxicity) AVEFA PRE
[33] = post-emergence, 360 h, POST-emergence, rate 250 g/ha, visual score 15 DAA (100%=total damage, 0%=no damage), read-out: Post-emergence herbicidal activity (percentage phytotoxicity) ECHCG POST
[34] = pre-emergence, 480 h, PRE-emergence, rate 250 g/ha, visual score 20 DAA (100%=total damage, 0%=no damage), read-out: Pre-emergence herbicidal activity (percentage phytotoxicity) ECHCG PRE
[35] = post-emergence, 360 h, POST-emergence, rate 250 g/ha, visual score 15 DAA (100%=total damage, 0%=no damage), read-out: Post-emergence herbicidal activity (percentage phytotoxicity) LOLPE POST
[36] = pre-emergence, 480 h, PRE-emergence, rate 250 g/ha, visual score 20 DAA (100%=total damage, 0%=no damage), read-out: Pre-emergence herbicidal activity (percentage phytotoxicity) LOLPE PRE

Cc1cc(OCC(F)(F)F)cc(C)c1C1C(=O)CC(CC(N)=O)C1=O (centres unmarked) [Compound B154]
pest or weed control at 250 g/ha [1, 5]: 70%
pest or weed control at 250 g/ha [1, 6]: 90%
pest or weed control at 250 g/ha [2, 7]: 70%
pest or weed control at 250 g/ha [2, 8]: 50%
pest or weed control at 250 g/ha [3, 9]: 90%
pest or weed control at 250 g/ha [3, 10]: 80%
pest or weed control at 250 g/ha [4, 11]: 70%
pest or weed control at 250 g/ha [4, 12]: 70%

CCC(C)(C)NC(=O)CC1CC(=O)C(c2c(C)cc(-c3ncc(Cl)cc3F)cc2C)C1=O (centres unmarked) [Compound A46]
pest or weed control at 250 g/ha [1, 13]: 100%
pest or weed control at 250 g/ha [1, 14]: 100%
pest or weed control at 250 g/ha [2, 15]: 100%
pest or weed control at 250 g/ha [2, 16]: 90%
pest or weed control at 250 g/ha [3, 17]: 100%
pest or weed control at 250 g/ha [3, 18]: 100%
pest or weed control at 250 g/ha [4, 19]: 100%
pest or weed control at 250 g/ha [4, 20]: 90%

Cc1cc(-c2ccc(F)cn2)cc(C)c1C1C(=O)CC(CC(=O)NCC2CC2)C1=O (centres unmarked) [Compound B386]
pest or weed control at 250 g/ha [1, 21]: 100%
pest or weed control at 250 g/ha [1, 22]: 100%
pest or weed control at 250 g/ha [2, 23]: 100%
pest or weed control at 250 g/ha [2, 24]: 100%
pest or weed control at 250 g/ha [3, 25]: 40%
pest or weed control at 250 g/ha [3, 26]: 100%
pest or weed control at 250 g/ha [4, 27]: 90%
pest or weed control at 250 g/ha [4, 28]: 100%

Cc1cc(C)c(C2C(=O)CC(CC(=O)N(C)C(C)(C)C)C2=O)c(C)c1 (centres unmarked) [Compound B80]
pest or weed control at 250 g/ha [1, 5]: 80%
pest or weed control at 250 g/ha [1, 6]: 90%
pest or weed control at 250 g/ha [2, 7]: 60%
pest or weed control at 250 g/ha [2, 8]: 0%
pest or weed control at 250 g/ha [3, 9]: 90%
pest or weed control at 250 g/ha [3, 10]: 90%
pest or weed control at 250 g/ha [4, 11]: 90%
pest or weed control at 250 g/ha [4, 12]: 100%

CC#Cc1cc(C)c(C2C(=O)CC(CC(=O)NCCCC)C2=O)c(CC)c1 (centres unmarked) [Compound A51]
pest or weed control at 250 g/ha [1, 13]: 100%
pest or weed control at 250 g/ha [1, 14]: 100%
pest or weed control at 250 g/ha [2, 15]: 100%
pest or weed control at 250 g/ha [2, 16]: 100%
pest or weed control at 250 g/ha [3, 17]: 100%
pest or weed control at 250 g/ha [3, 18]: 100%
pest or weed control at 250 g/ha [4, 19]: 100%
pest or weed control at 250 g/ha [4, 20]: 100%

Cc1cc(-c2ncc(F)cn2)cc(C)c1C1C(=O)CC(CC(=O)NC/C=C\Br)C1=O (centres unmarked) [Compound B326]
pest or weed control at 250 g/ha [1, 29]: 100%
pest or weed control at 250 g/ha [1, 30]: 100%
pest or weed control at 250 g/ha [2, 31]: 100%
pest or weed control at 250 g/ha [2, 32]: 80%
pest or weed control at 250 g/ha [3, 33]: 100%
pest or weed control at 250 g/ha [3, 34]: 100%
pest or weed control at 250 g/ha [4, 35]: 100%
pest or weed control at 250 g/ha [4, 36]: 100%

COCCCN(C(=O)CC1CC(OC(=O)C(C)(C)C)=C(c2c(C)cc(C)cc2C)C1=O)C(=O)C(C)(C)C (centres unmarked) [Compound P9]
pest or weed control at 250 g/ha [1, 21]: 80%
pest or weed control at 250 g/ha [1, 22]: 90%
pest or weed control at 250 g/ha [2, 23]: 80%
pest or weed control at 250 g/ha [2, 24]: 60%
pest or weed control at 250 g/ha [3, 25]: 80%
pest or weed control at 250 g/ha [3, 26]: 90%
pest or weed control at 250 g/ha [4, 27]: 80%
pest or weed control at 250 g/ha [4, 28]: 90%

C#CCN(C)C(=O)CC1CC(=O)C(c2c(C)cc(/C=C/C)cc2CC)C1=O (centres unmarked) [Compound B195]
pest or weed control at 250 g/ha [1, 29]: 100%
pest or weed control at 250 g/ha [1, 30]: 90%
pest or weed control at 250 g/ha [2, 31]: 100%
pest or weed control at 250 g/ha [2, 32]: 80%
pest or weed control at 250 g/ha [3, 33]: 100%
pest or weed control at 250 g/ha [3, 34]: 100%
pest or weed control at 250 g/ha [4, 35]: 100%
pest or weed control at 250 g/ha [4, 36]: 100%

C#CCN(C)C(=O)CC1CC(=O)C(c2c(C)cc(-c3ccc(Cl)cn3)cc2C)C1=O (centres unmarked) [Compound B369]
pest or weed control at 250 g/ha [1, 21]: 90%
pest or weed control at 250 g/ha [1, 22]: 100%
pest or weed control at 250 g/ha [2, 23]: 100%
pest or weed control at 250 g/ha [2, 24]: 100%
pest or weed control at 250 g/ha [3, 25]: 100%
pest or weed control at 250 g/ha [3, 26]: 100%
pest or weed control at 250 g/ha [4, 27]: 90%
pest or weed control at 250 g/ha [4, 28]: 100%

Cc1cc(-c2ncc(F)cn2)cc(C)c1C1C(=O)CC(CC(=O)NC(C)(C)C)C1=O (centres unmarked) [Compound B5]
pest or weed control at 250 g/ha [1, 5]: 100%
pest or weed control at 250 g/ha [1, 6]: 100%
pest or weed control at 250 g/ha [2, 7]: 100%
pest or weed control at 250 g/ha [2, 8]: 90%
pest or weed control at 250 g/ha [3, 9]: 100%
pest or weed control at 250 g/ha [3, 10]: 100%
pest or weed control at 250 g/ha [4, 11]: 90%
pest or weed control at 250 g/ha [4, 12]: 100%
